This is an account of results in patent US20240400555A1 (Initial Therapeutics, Inc., priority 2023, published 2024).

Data set [1] relates to NB4 cells and Nalm-6 cells. To be noted: APL-derived NB4 cells and ALL-derived Nalm-6 cells; cited from earlier work.
Data set [2] deals with c-MYC. Kind of data set: Cellular c-MYC Alpha Screen. The data set is classed as cell-based. To be noted: Homo sapiens; c-MYC alpha screen dose response, HCT-116 reporter cells, 24 h; read-out: Geomean pIC50 (converted). Here is the method:
HCT-116 Firefly-luciferase reporter cells (BPS bioscience) were seeded in 96-well tissue-culture treated sterile plates (Greiner Bio-One) at 7.5e4 cells/mL in 100 μL complete growth media (McCoy's 5A+10% FBS, +1% Pen-Strep, +1% G418). Cells were incubated at 37° C. with 5% CO2 for 24 h then treated with 3× compound solution in 50 μL complete growth media for a final volume of 150 μL per well with 0.2% DMSO. After 24 h incubation at 37° C. with 5% CO2, plates were allowed to equilibrate to RT for 20 min; the media was then aspirated, and the plate washed once with 200 μL 1×PBS. Cells were then lysed by addition of 1× Alpha Screen lysis buffer (50 μL) from the Perkin Elmer alpha Screen c-MYC detection kit (Part number 6760611C). The lysate is then transferred to ice and advanced to the Alpha Screen detection assay or sealed with adhesive foil and stored at −80° C. for up to 2 weeks before use.
The alpha screen detection assay was then performed as per the vendors instructions. Briefly the acceptor bead mix was prepared as per vendors instructions. 30 ul of the cell lysate is transferred to a 96-well white assay plate. 15 ul of the acceptor mix was added to each well and incubated in the dark for at least one hour. Then the donor bead mix was prepared as per vendors instructions and 15 ul of this was added to the assay plate. The plate was then incubated at RT for one hour in the dark. The plate was then read in the SpectraMax i3x plate reader (Molecular Devices) using the alpha screen module (excitation wavelength 680 emission wavelength 615) and analyzed using GraphPad Prism 9 software.

Data set [3] has as its system HCT-116 Firefly-luciferase reporter cells. Kind of data set: Cellular c-MYC Reporter Assay. The following applies: Homo sapiens, HCT-116 Firefly-luciferase reporter cells, 24 h; for EC50: HCT-116, 24 h, read-out: Geomean pEC50 (converted). The data set is classed as cell-based. An outline of the steps: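 Reporter cells seeded at 5e4 cells/mL in McCoy's 5A with 10% FBS and G418, dosed after 4–6 h at 0.2% final DMSO. After 24 h at 37 °C, luciferase luminescence was read with ONE-Glo.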

Data set [4] has as its system c-MYC. Kind of data set: In Vitro Translation Dose-Response Curves (In Vitro Multiple Point Translation Screening Assay). The data set is classed as biochemical. The following applies: IVT dose response curve. Here is the method:
HeLa S3 cell Preparation. HeLa S3 cells were grown essentially as described in Mikami 2010. Frozen aliquots of banked HeLa cells (ATCC #CCL-2.2) were thawed and diluted into agitated suspension culture in CD293 medium supplemented with 10% HI FBS, 1× GlutaMAX, and 1× Pen/Strep. Cells were expanded in suspension over 10 passages to inoculate 3×20 L wave bag bioreactors and cultured for approximately 48 h to a final density of 1.81×10^6 viable cells per mL. Cells were pelleted by centrifugation at 2500 RCF for 15 min at 4° C. Two 1 L pellets were combined in 32 sets and re-pelleted in 50 ml conical tubes, resulting in 32×10 mL cell pellets weighing approximately 10 g each. Final pellets were snap frozen in liquid nitrogen and stored at −80° C. (cell culture, harvesting, and cryo-preservation completed at LakePharma). Cell pellets were subsequently thawed at RT, resuspended in 15 mL wash buffer (35 mM HEPES-KOH, pH 7.5, 140 mM NaCl, and 11 mM glucose), then re-pelleted by centrifugation at 2500 RCF for 10 min at 4° C. The supernatant was discarded and the wash step repeated 2×. The pellets were resuspended each pellet in 10 mL in hypertonic extraction buffer (20 mM HEPES-KOH, pH 7.5, 45 mM potassium acetate, 45 mM KCl, 1.8 mM magnesium acetate, and 1 mM TCEP added directly before use). The cell suspension was transferred to a cell disruption vessel (Parr Instrument Company, model 4636, 1850 mL capacity) and incubated for 15 min on ice, then sealed under nitrogen (200 PSI) for 1.5 h. The cell homogenates were released through a needle valve and collected on ice, then diluted with 1/29 volume high potassium buffer (20 mM HEPES-KOH, pH 7.5, 945 mM potassium acetate, 945 mM KCl, 1.8 mM magnesium acetate, and 1 mM TCEP). The cell homogenates were then clarified by centrifugation at 2500 RCF for 10 min at 4° C. and the supernatant collected. The clarification step was repeated 3×. The resulting cell extracts (675 mL, 2.5 mg/mL total protein) were aliquoted and flash frozen in liquid nitrogen and stored at −80° C. until use.
Translation reactions were incubated for 20 min at 30° C. Nanoluciferase luminescence was measured by combining 2 μL of IVT reaction with 20 μL of prepared reagent from the Nanoglo assay kit (Promega). A negative control of 0.5% DMSO and positive control of 50 μM puromycin were used to define to assay window.
Dose response curve IVTs were performed similar to the single point IVT screening with the following changes. The desired concentration curves were plated into 384 well plates from DMSO stocks using a Tecan D300e dispenser. […] After reaction incubation and luminescence measurement, dose-response curves were fit to the data using Prism (Graphpad) or Collaborative Drug Discovery analysis programs.

The test system of the next data set is xenografts of human MM. To be noted: in vivo; cited from earlier work.
The test system of another data set is MM cell. To be noted: in vitro; cited from earlier work.
The next data set has as its system tumor growth. To be noted: mice; cited from earlier work.
Data set [5] has as its system human lung cancer cell lines (H23 and H292). The following applies: cited from earlier work.
Another data set deals with murine models of MM. The following applies: three murine models; cited from earlier work.
For data set [6], the system named is prostate cancer cell lines PC-3 and 22 Rv1. To be noted: cited from earlier work.

For the compound `CCc1ccc(/C=C2/SC(=S)NC2=O)cc1` [Compound 10058-F4], in data set [1], the “viability of leukemia cells” value was “reduced viability”.
`Cc1cc(C2CCN(C(=O)N(c3nccc4cccc(C)c34)[C@@H]3CCCNC3)CC2)on1` [Example 243, (R)—N-(8-methylisoquinolin-1-yl)-4-(3-methylisoxazol-5-yl)-N-(piperidin-3-yl)piperidine-1-carboxamide]: the IC50 with c-MYC [2] was 398 nM; in [3] (untitled table following Table 8a, read-out: pIC50 (converted)) it was 525 nM.
Take `Cc1cccc2ccnc(N(C(=O)c3ccc(-n4nnc5cccnc54)cc3)[C@@H]3CCCNC3)c12` [Example 50, (R)-4-(3H-[1,2,3]triazolo[4,5-b]pyridin-3-yl)-N-(8-methylisoquinolin-1-yl)-N-(piperidin-3-yl)benzamide]: in the data set with c-MYC [2], the IC50 is 158 nM. Besides, in the data set with c-MYC [4], the “Geomean pIC50” value is given as 6.0 (n = 4).
In the case of `O=C(c1cc(Cc2n[nH]c(=O)c3ccccc23)ccc1F)N1CCN(C(=O)C2CC2)CC1` [olaparib], the “efficacy against xenografts of human MM” value in the data set with xenografts of human MM was “effective against in vivo xenografts of human MM”. Also, the MM cell viability entry with MM cell is recorded as “impaired MM cell viability in vitro”.
On to `Cc1cccc2ccnc(N(C(=O)c3ccc(-n4ccnn4)cc3)[C@@H]3CCCNC3)c12` [Example 54, (R)-N-(8-methylisoquinolin-1-yl)-N-(piperidin-3-yl)-4-(1H-1,2,3-triazol-1-yl)benzamide], for which the “Geomean pIC50” value in the data set with c-MYC [4] is 4.70 (n = 2).
With `Cn1nc(C(F)(F)F)cc1-c1ccc(OCc2ccc(Cl)cc2)c(-c2cc(C(F)(F)F)cc(C(F)(F)F)c2)c1O` [MYCi361], the “in vivo tumor growth” value in the data set with tumor growth is listed as “suppressed in vivo tumor growth in mice”.
`Cc1cccc2ccnc(N(C(=O)c3ccc(Nc4ncccn4)cc3)[C@@H]3CCCNC3)c12` [Example 51, (R)-N-(8-methylisoquinolin-1-yl)-N-(piperidin-3-yl)-4-(pyrimidin-2-ylamino)benzamide]: in the data set with c-MYC [2], the IC50 was 1000 nM. Moreover, in data set [3], the EC50 is 251 nM. The “Geomean pIC50” value in the data set on c-MYC [4] is listed as 4.8 (n = 2).
`CCc1ccc(O)c(CN(C)Cc2cc(CC)ccc2O)c1` [EMD, N, N-bis(5-ethyl-2-hydroxybenzyl) methylamine]: the “cytotoxicity toward human lung cancer cell lines” value in [5] is listed as “strong cytotoxicity”.
For `Cc1sc2c(c1C)C(c1ccc(Cl)cc1)=N[C@@H](CC(=O)OC(C)(C)C)c1nnc(C)n1-2` [JQ1], the “efficacy in murine models of MM” value with murine models of MM is on record as “efficacious in three murine models of MM”.
`Cc1cccc2ccnc(N(C(=O)c3ccc(-n4c(C)nc5ccccc54)cc3)[C@@H]3CCCNC3)c12` [Example 57, (R)-4-(2-methyl-1H-benzo[d]imidazol-1-yl)-N-(8-methylisoquinolin-1-yl)-N-(piperidin-3-yl)benzamide]: the EC50 in [3] is 257 nM. Moreover, the “Geomean pIC50” value in the data set with c-MYC [4] was 4.6 (n = 2).
On to `C=CCc1ccc(O)c(-c2ccc(O)c(CC=C)c2)c1` [Honokiol], for which, in [6], the “anti-cancer activity against prostate cancer cell lines” value is on record as “significant anti-cancer activity”; the “levels of total and/or phosphorylated c-MYC protein and its mRNA expression” value is given as “marked decrease”.
